Reference: the METLIN SMRT retention time set (Domingo-Almenara et al. 2019)

assay: gradient 5% acetonitrile 3 min, to 50% in 2 min, to 85% in 15 min, held 3 min, 100 µL/min; settings: column: Zorbax Extend-C18 2.1 x 50 mm; eluents: water / acetonitrile, 0.1% formic acid
Outline: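 A Zorbax Extend-C18 column (2.1 × 50 mm, 1.8 μm) run at 100 μL/min with water and acetonitrile, both containing 0.1% formic acid, separated mixtures of ~100 pure standards. The HPLC was coupled to a quadrupole time-of-flight mass spectrometer operated in positive and negative ionization mode, with dead and dwell volumes of 40 μL and 900 μL. Each retention time was taken from a computationally picked adduct peak that was then manually inspected.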

SMILES	RP-LC retention time [s]
CCCNC(=O)c1cccc2c1CCN2C(C)=O	633
Cc1oc2ncnc(N3CCOCC3)c2c1C(=O)N1CCCc2ccccc21	790
CN(C)CCCNc1oc(-c2ccccc2F)nc1S(=O)(=O)c1ccccc1	666
CCCCn1cnc2c(-c3ccccc3)cn(CC(=O)N3CCCC3)c2c1=O	836
CC(=O)Nc1c(C(=O)Nc2ccc(Cl)cc2)nnn1-c1ccccc1	838
CCCNC(=O)C1Cc2cc(S(=O)(=O)N3CCCCC3)ccc2N1C(=O)CC (configuration not stated)	800
O=C(Cn1cccc(-c2nc(-c3ccc(F)cc3)no2)c1=O)NCc1cccs1	673
COC(=O)C(C)Sc1ncnc2sc(C)c(C)c12 (configuration not stated)	955
O=C(c1cc2ccccc2[nH]1)N1CCN(Cc2nc3ccccc3[nH]2)CC1	576
O=C(NCc1ccccc1F)c1c(O)c2cccnc2n(Cc2ccccc2)c1=O	1360
CCN1CCN(C(=O)C2Cc3cc(S(=O)(=O)N4CCCCC4)ccc3N2C(C)=O)CC1 (configuration not stated)	601
COc1cccc(C2CC(c3ccc4c(c3)OCO4)=NC3(CCN(C(C)C)CC3)N2)c1O (configuration not stated)	599
Cc1oc2ncnc(N3CCCC(C(=O)N4CCN(C5CCCCC5)CC4)C3)c2c1C (configuration not stated)	1230
Cc1cc(N2CCN(C(=O)c3nccc4ccccc34)CC2)nc2nncn12	597
CN1CCn2cc(S(=O)(=O)Nc3cccc(Cl)c3)cc2C1=O	709
O=C1CC(c2noc(C3CCC3)n2)CN1c1ccccc1 (configuration not stated)	869
CC(C)[C@H](C(=O)Nc1ccc(C(=O)NO)cc1)c1ccccc1	791
CC1=C(c2ccccc2)S(=O)(=O)N=C1N1CCCN(C(=O)c2cccc(F)c2)CC1	847
O=S(=O)(Nc1ccc(F)cc1)c1cccnc1N1CCOCC1	801
CC1(C(=O)NCc2ccccc2)Cn2cnc(C(=O)N3CCOCC3)c2C(=O)N1C1CC1 (configuration not stated)	605
CCc1cc(C(=O)Nc2ccc(F)c(C)c2)nc2ccnn12	1180
CCOc1ccc(-n2ccn3c(CCCC(=O)NC4CCCCCC4)nnc3c2=O)cc1	783
COc1ccc2c(c1)C1(CCN(C(=O)c3cccc(C)c3)C1)C(=O)N2C (configuration not stated)	823
CCN(CC)CCCNC(=O)C1c2ccccc2C(=O)N(C)C1c1cccs1 (configuration not stated)	602

SMILES	RP-LC retention time [s]
COc1ccc(Br)cc1Cn1nnc(C(=O)NCc2ccco2)c1N	791
CCOC(=O)c1c(C)oc2nc(C)nc(N(C)Cc3ccccc3)c12	1150
CCNS(=O)(=O)c1cc(-c2c(CC)noc2NC(C)=O)ccc1C	698
CC(C)N1Cc2cc(C(=O)N3CCC(Cc4ccccc4)CC3)sc2C1	949
CCOC(=O)c1oc2ccc(S(=O)(=O)N3CCCCCCNC(=O)[C@@H]4CCC[C@@H]43)cc2c1C	1060
CC(=O)Nc1cccc(C2=NN(C(C)=O)C(c3cccs3)C2)c1 (configuration not stated)	685
Cc1cccc(Cn2nnc(C(=O)O)c2-c2cccnc2)c1	669
COCCNC(=O)C1CCCN(c2ncnc3c2oc2ccccc23)C1 (configuration not stated)	633
O=C(CN1C(=O)C(O)(c2cccc(F)c2)c2ccccc21)NCCC1=CCCCC1 (configuration not stated)	965
CS(=O)(=O)N1CCOc2ccc(CCC(=O)NCC3CCCO3)cc2C1 (configuration not stated)	666
O=C(CCN1CCN(CCO)CC1)N1c2ccccc2Sc2ccc(C(F)(F)F)cc21	673
O=C(NC1(c2nc(-c3cnccn3)no2)CCCCC1)c1cc2cc(Cl)ccc2[nH]1	916
CCCNC(=O)C1CC(=O)N(c2n[nH]c3cccc(F)c23)C1 (configuration not stated)	626
CN1c2cc(F)ccc2C(=O)NC12CCN(C(=O)NCc1ccc(F)cc1)CC2	754
O=C(CCn1nnc2cc(-c3noc(COc4ccc(F)cc4)n3)ccc21)N1CCCC1	877
O=c1c2cc(-c3cccs3)nn2ccn1CC(O)c1cccc(Cl)c1 (configuration not stated)	924
CCOC(=O)c1sc(NC(=O)c2ccncc2)nc1-c1ccccc1	855
Cc1ccc(NC(=O)N2CCC(n3cnc4cccnc43)CC2)cc1F	682
CCn1c(N2CCCC(C(=O)NCCN3CCN(c4ccccc4)CC3)C2)cc(=O)n(C)c1=O (configuration not stated)	638
CCOCCCNC(=O)N1CCCCCC1c1ccc(C)cc1 (configuration not stated)	954
O=C(NCCOc1ccc2c(c1)OCO2)C1CCCC1	741
O=C(C(=O)N1CCN(c2ccccc2Cl)CC1)c1c[nH]c2ccccc12	940
Cc1ccc(-c2nnc(Cc3nc(-c4ccccc4Cl)no3)o2)cc1F	1110

Continued, values first:

RP-LC retention time [s]	SMILES
820	COc1ccc(C(=O)NCc2cnoc2-c2ccc(F)cc2)cc1OC
862	COC(=O)Cc1c(C(=O)OC)nnn1-c1ccc(OC)cc1
806	O=C(CN1CCN(Cc2ccc(F)cc2)C1=O)NCc1cc(F)ccc1F
763	CC(=O)c1ccc(NC(=O)Cn2c(=O)n(-c3ccc(F)cc3)c(=O)c3c2cc(C)n3C)cc1
826	Cc1ccc(Nc2c(-c3cccc(Br)c3)nc3cccc(C)n23)cc1
735	Cc1cc(NC(=O)Cn2cnc(-c3ccc(Cl)cc3)cc2=O)no1
1190	Cc1ccc(-c2noc(Cc3nnc(-c4cc(C)cc(C)c4)o3)n2)cc1
796	Cc1nn(CC(=O)Nc2ccc(Cl)cc2F)c(=O)c2noc(C)c12
816	Cc1cccc(NC(=O)C2CC(=O)N(c3ccc4c(c3)CCN4C(=O)C3CC3)C2)c1 (configuration not stated)
1270	CCN(C(=O)c1cccc(OC)c1)c1nc(-c2ccccc2)cs1
799	Cc1ccc(CNC(=O)c2ncn3c2C(=O)N(C2CC2)C(C)(C(=O)NCc2ccc(F)cc2)C3)cc1 (configuration not stated)
786	O=C(Cn1ccn2nc(-c3ccc(F)cc3)c(CO)c2c1=O)Nc1ccc2c(c1)OCCO2
856	CCOc1cccc(CNC(=O)c2c(C)sc3ccn(CC)c(=O)c23)c1
632	Cn1c(=O)c2c(C(=O)NCC3CCN(Cc4cccc(Cl)c4)CC3)cc(=O)n(C)c2n(C)c1=O
793	CCOC(=O)c1c(S(=O)(=O)N2CCC(C(=O)NCc3ccc(OC)cc3)CC2)c(C)n(C)c1C
872	COc1ccc(NC(=O)Cn2c(=O)n(-c3ccc(C)cc3)c(=O)c3c2cc(C)n3C)c(OC)c1
595	COc1ccc(-c2cc(N)n[nH]2)c(OC)c1
784	COc1ccc(-c2nc3ncccn3c2Nc2ccc(C)c(C)c2)cc1
802	CCc1cc(=O)n(CC(=O)Nc2cc(C)cc(C)c2)c(N2CCOCC2)n1
1150	Cc1ccc(-n2c(=O)c3sccc3n(Cc3nc(-c4ccc(C)c(C)c4)no3)c2=O)cc1
